Results from patent US20050112128A1, “Inhibition of protein kinase c-mu (PKD) as a treatment for cardiac hypertrophy and heart failure” (Myogen, Inc. and Board of Regents, The University of Texas …, priority 2003, published 2005).
“Also recorded” adds a separate entry of the source. Where no end group is shown, it is not given here.

Key:
[1] = tested on: nuclear export of HDAC5 in COS cells; experiment: GFP-HDAC5 nuclear export in transfected COS cells (fluorescence microscopy); type: cell-based; settings: COS cells transfected with GFP-HDAC5; 60 min after addition of compounds
Procedure: FIGS. 1A-D—PKC-dependent nuclear export of HDAC5. FIG. 1A. COS cells were cultured on 6-well dishes, transfected with a GFP-HDAC5 expression vector (1 μg) and stimulated with the indicated compounds, as described in Materials and Methods. Sixty minutes after addition of compounds, GFP-HDAC5 distribution was determined by fluorescence microscopy. […] FIG. 1B. COS cells were transfected with expression vectors encoding FLAG-tagged versions of either HDAC5 or an HDAC5 mutant harboring alanines in place of serines 259 and 498 (HDAC5 S259/498A) (1 μg each). Cells were stimulated with PMA for 60 min and HDAC5 distribution was determined by indirect immunofluorescence with anti-FLAG primary antibody and fluorecein-conjugated secondary antibody. HDAC5 259/498A is refractory to PMA stimulation. FIG. 1C. COS cells transfected with GFPHDAC5 encoding expression vector (1 μg) and stimulated with PMA for the indicated times. FIG. 1D. COS cells were transiently transfected with expression vectors encoding FLAG-tagged versions of HDAC5 or HDAC5 S259/498A (1 μg each). Cells were pretreated with the PKC inhibitor bisindolylmaleimide (Bis I; 10 μM) for 30 minutes and stimulated with PMA for 30 min, as indicated. Association of FLAG-HDAC5 with endogenous 14-3-3 was detected by sequential immunoprecipitation and immunoblotting.
Cell culture and transfection assays. COS cells were maintained in DMEM with FBS (10%), L-glutamine (2 mM), and penicillin-streptomycin. Transfection of COS cells was performed with Fugene 6 (Roche Molecular Biochemicals) according to manufacturer's instructions. For HDAC localization experiments, cells were treated 16-24 hours after transfection with PMA (100 nM), ionomycin […], 8-Br-cAMP (1 mM), pCPT-GMP (1 mM), or anisomycin (1 mM). Where noted, specific protein kinase inhibitors were added 30 min prior to the addition of any chemical stimulus. GFP-HDAC5 was visualized with standard fluorescent microscopic techniques. For indirect immunofluorescence of FLAG-HDAC5, COS cells were seeded on glass coverslips, transfected, and treated as above. After specific treatment, cells were fixed with buffered formalin (10%) and stained in PBS containing BSA (3%) and Nonidet P-40 (0.1%). Flag M2 antibody (Sigma) was used at a concentration of 1:200. Secondary fluoresceine-conjugated antibody (Vector Laboratories) was also used at a concentration of 1:200. Staining of cardiomyocytes for sarcomeres and atrial natriuretic factor (ANF) was performed by indirect immunofluorescence detection as above with antibodies directed against sarcomeric α-actinin (Sigma) and ANF (Peninsula Laboratories), respectively.

[2] = tested on: nuclear export of GFP-HDAC5 in NRVMs; experiment: Quantitative HDAC5 nuclear export assay in NRVMs (Cellomics High Content Imaging System); type: cell-based, rat; settings: 2 hrs; for block of PE-induced nuclear export of HDAC5: PE 20 μM, KN93, wortmannin, staurosporine 1 mM, U1026, HA1077, Y-27632, DAG Kinase inhibitor II, SB216763, Bis I 10 mM, rapamycin 30 ng/ml, Gö6983 10 μM
[3] = molecular target: T1, PKD (Homo sapiens, UniProt Q15139); settings: literature (Van Lint 2002; Gschwendt 1996; Haworth); cited from earlier work
T1 sequence (Q15139 1-912): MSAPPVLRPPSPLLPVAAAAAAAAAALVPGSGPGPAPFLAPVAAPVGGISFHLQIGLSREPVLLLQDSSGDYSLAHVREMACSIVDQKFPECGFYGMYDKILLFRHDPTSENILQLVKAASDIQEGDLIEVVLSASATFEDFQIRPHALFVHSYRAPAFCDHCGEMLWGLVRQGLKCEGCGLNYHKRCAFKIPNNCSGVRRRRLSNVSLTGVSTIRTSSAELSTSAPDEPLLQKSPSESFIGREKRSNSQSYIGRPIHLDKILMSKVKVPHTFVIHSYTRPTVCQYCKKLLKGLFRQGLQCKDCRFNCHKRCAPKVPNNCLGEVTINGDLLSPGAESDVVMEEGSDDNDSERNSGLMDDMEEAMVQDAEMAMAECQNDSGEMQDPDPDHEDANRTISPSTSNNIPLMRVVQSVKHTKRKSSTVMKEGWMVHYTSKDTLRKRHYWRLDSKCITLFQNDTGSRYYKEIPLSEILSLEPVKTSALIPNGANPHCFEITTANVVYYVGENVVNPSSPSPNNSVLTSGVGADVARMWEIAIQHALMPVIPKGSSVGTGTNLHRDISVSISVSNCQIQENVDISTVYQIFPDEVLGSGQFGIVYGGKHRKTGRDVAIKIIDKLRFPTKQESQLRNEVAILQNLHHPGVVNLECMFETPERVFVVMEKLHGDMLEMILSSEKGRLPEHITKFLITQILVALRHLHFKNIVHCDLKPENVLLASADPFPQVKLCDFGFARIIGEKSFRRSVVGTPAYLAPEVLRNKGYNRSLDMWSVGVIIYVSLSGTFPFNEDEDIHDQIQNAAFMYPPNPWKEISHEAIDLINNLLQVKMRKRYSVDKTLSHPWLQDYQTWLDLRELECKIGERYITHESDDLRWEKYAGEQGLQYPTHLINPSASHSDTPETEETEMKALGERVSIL

[4] = tested on: HDAC5-bound PKD; type: biochemical, rat; settings: NRVMs pre-treated 30 min with 10 μM inhibitor (pre-Bis I)
[5] = NRVMs, inhibitor pre-treatment 30 min

C[C@H](CCC(=O)O)C[C@H](C)C[C@H](C)C(=O)/C=C(\O)[C@H](C)C[C@H](C)C/C=C/[C@@H](C)[C@@H](O)[C@@H](C)[C@@H](O)C[C@@H]1CC[C@@](C)([C@H]2CC[C@@](C)([C@@H](C)O)O2)O1 [ionomycin]
stimulation of nuclear export of GFP-HDAC5 [1]: partial response; also recorded: stimulated nuclear export of GFP-HDAC5

Cn1cc(C2=C(c3ccc(Cl)cc3Cl)C(=O)NC2=O)c2ccccc21 [SB216763]
block of PE-induced nuclear export of HDAC5 [2, 5]: did not significantly affect PE-induced nuclear export of HDAC5

COc1ccc2c(c1)c(C1=C(c3c[nH]c4ccccc34)C(=O)NC1=O)cn2CCCN(C)C [Go6983]
sensitivity of PKD to the inhibitor [3]: not to Bis I or Gö6983 | block of PE-induced nuclear export of HDAC5 [2, 5]: inhibiting HDAC5 nuclear export in response to PE

CN[C@@H]1C[C@H]2O[C@@](C)([C@@H]1OC)n1c3ccccc3c3c4c(c5c6ccccc6n2c5c31)C(=O)NC4 [staurosporine]
block of PE-induced nuclear export of HDAC5 [2, 5]: effective in blocking PE-dependent export of HDAC5; also recorded: effective in blocking HDAC5 nuclear export

O=c1c2ccccc2[nH]c(=S)n1CCN1CCC(=C(c2ccc(F)cc2)c2ccc(F)cc2)CC1 [DAGK inhibitor II]
block of PE-induced nuclear export of HDAC5 [2, 5]: did not significantly affect PE-induced nuclear export of HDAC5

N#CC(=C(/N)Sc1ccccc1N)/C(C#N)=C(/N)Sc1ccccc1N [U1026]
block of PE-induced nuclear export of HDAC5 [2, 5]: did not significantly affect PE-induced nuclear export of HDAC5

C[C@@H](N)[C@H]1CC[C@H](C(=O)Nc2ccncc2)CC1 [Y-27632]
block of PE-induced nuclear export of HDAC5 [2, 5]: did not significantly affect PE-induced nuclear export of HDAC5

Nc1ncnc2c1nc(Br)n2[C@@H]1O[C@@H]2COP(=O)(O)O[C@H]2[C@H]1O [8-Br-cAMP]
stimulation of nuclear export of GFP-HDAC5 [1]: only ionomycin and PMA stimulated nuclear export

Endothelin-1 (CSCSSLMDKECVYFCHLDIIW; ends and bridges not checked; cysteine pairing not given here; UniProt P05305 53-73, looked up) [ET-1, hypertrophic agonist purchased from Sigma]
agonist-triggered nuclear export of HDAC5 in cardiomyocytes ([2]; NRVMs infected with Ad-GFP-HDAC5, PE 0.1 to 20 μM, ET-1 50 nM, FBS 10%): effectively promote nuclear export of HDAC5

COc1ccc(C[C@H]2NC[C@H](O)[C@H]2OC(C)=O)cc1 [anisomycin]
stimulation of nuclear export of GFP-HDAC5 [1]: only ionomycin and PMA stimulated nuclear export

Cn1cc(C2=C(c3cn(CCCSC(=N)N)c4ccccc34)C(=O)NC2=O)c2ccccc21 [Ro 31-8220]
sensitivity of PKD to the inhibitor [3]: insensitive

CN(C)CCCn1cc(C2=C(c3c[nH]c4ccccc34)C(=O)NC2=O)c2ccccc21 [GF I]
sensitivity of PKD to the inhibitor [3]: insensitive

O=S(=O)(c1cccc2cnccc12)N1CCCNCC1 [HA1077]
block of PE-induced nuclear export of HDAC5 [2, 5]: did not significantly affect PE-induced nuclear export of HDAC5

CN(C)CCCn1cc(C2=C(c3c[nH]c4ccccc34)C(=O)NC2=O)c2ccccc21 [Bis I, bisindolylmaleimide I]
block of HDAC5 phosphorylation, inhibitor given to cells before PMA [4]: Phosphorylation of HDAC5 was blocked | sensitivity of PKD to the inhibitor [3]: not to Bis I or Gö6983 | block of ET-1-induced nuclear export of HDAC5 ([2]; NRVMs, ET-1 50 nM, inhibitor pre-treatment 30 min): had no effect | block of FBS-induced nuclear export of HDAC5 ([2]; NRVMs, FBS 10%, inhibitor pre-treatment 30 min): had no effect | block of PE-induced nuclear export of HDAC5 [2, 5]: effective in blocking PE-dependent export of HDAC5; also recorded: inhibitory effect on PE-dependent HDAC5 nuclear export; also recorded: effective in blocking HDAC5 nuclear export

Nc1nc2c(nc(Sc3ccc(Cl)cc3)n2[C@@H]2O[C@@H]3COP(=O)(O)O[C@H]3[C@H]2O)c(=O)[nH]1 [pCPT-GMP]
stimulation of nuclear export of GFP-HDAC5 [1]: only ionomycin and PMA stimulated nuclear export

COc1ccc(S(=O)(=O)N(CCO)c2ccccc2CN(C)C/C=C/c2ccc(Cl)cc2)cc1 [KN93]
block of PE-induced nuclear export of HDAC5 [2, 5]: did not significantly affect PE-induced nuclear export of HDAC5
